Reference: patent US20150087969A1, “SYSTEMS AND METHODS FOR OPTICALLY GUIDED PLACEMENT AND MONITORING OF MEDICAL IMPLANTS” (Children's National Medical Center, priority 2013, published 2015)

Legend:
[1] = Thermal degradation by thermogravimetric analysis (TGA); format: physicochemical; conditions: TGA in nitrogen gas at 20° C./min (n=3)
Method: According to an embodiment, aromatic polyether-based medical grade thermoplastic polyurethane (TPU) pellets can be mixed with and without IRDye 800CW to form TPU Composite and Plain TPU using a hydraulic platen press. […] The temperature at which the samples begin to decrease sharply in weight is determined to be their degradation point. According to an embodiment, thermal degradation temperatures are evaluated using a Q50 Thermogravimetric Analyzer (TGA), wherein the analysis is conducted in nitrogen gas at 20° C./min (n=3), where n is the number of times the experiment has been performed.
Furthermore, the degradation temperatures are considerably higher than the processing temperature of TPU (195° C.).

[2] = Stability of IRDye 800CW fluorescent signal in PBS at 37° C.; format: physicochemical; conditions: PBS at 37° C. with gentle agitation, 12 days
Method: According to another embodiment of the disclosure, in order to determine the long-term effect of being implanted in vivo, catheters are leached in phosphate buffered saline powder (PBS) for 23 days to determine the amount of dye retained within the matrix. TPU Composite tubes are cut into thin slices, weighed, and added to a black 96 well plate containing 200 μl PBS. Leaching of IRDye 800CW from the TPU Composite (n=8) is analyzed under physiological conditions (pH ˜7.4, 37° C., with gentle agitation) in a water bath. The water bath is covered to prevent photo-bleaching. Each day, tubes can be transferred to the successive well containing PBS, and the previous day is analyzed using a micro-plate reader with excitation at 765 nm, emission at 794 nm and a sensitivity of 100. […] Further, to determine the amount of IRDye 800CW retained, a calibration curve containing serial dilutions of IRDye 800CW in PBS is used (0 to 0.00030 wt %) (R^2=0.99). Additionally, 10 mL of IRDye 800CW in PBS is placed in the water bath and 100 μL aliquots are analyzed per day for signs of signal degradation due to heat.
The retention analysis of IR Dye 800 CW within TPU matrix of FIG. 17 includes a 6.35% of the IR Dye 800 CW being released from the polymer over 23 days. […]

[3] = test system: Human Umbilical Vein Endothelial (HUVEC) cells; assay: Biocompatibility (toxicity) in direct contact with endothelial cells, alamar blue and Calcein AM/propidium iodide; format: cell-based
Method: According to another embodiment of disclosure, biocompatibility studies are conducted to determine the toxicity of TPU Composite in direct contact with endothelial cells as well as the adhesion of endothelial cells to the TPU Composite. Pressed films (Plain TPU and TPU Composite) are sterilized by washing in 1×PBS for 24 hours under constant agitation, followed by a 30 minute soak in 100% ethanol and two 1 hour rinses with PBS. Biocompatibility studies include 12 well cell bind plates being seeded with Human Umbilical Vein Endothelial (HUVEC) cells (passage 4-10, cultured in complete endothelial growth medium EGM Bulletkit, LONZA) at a density of 100 cells/cm^2 for 12 hours to allow for adhesion [37° C., 5% CO2]. Films (19 mm) are placed in direct contact to the cells and incubated for an additional 72 hours, replacing media daily. Toxicity is quantitatively analyzed with alamar blue according to manufacturer's protocol. Briefly, 100 μL of alamar blue is added to the media and allowed to incubate for 1.5 hours. Fluorescence of each alamar blue was read at excitation 545 nm, emission 590 nm. Films are removed from wells and cells are stained with Calcein AM and propidium iodide according to manufacturer's protocol, fixed with 4% paraformaldehyde for 1 hour and rinsed three times with PBS for qualitative analysis of cell death. Cells are imaged with fluorescent confocal imaging (Zeiss) for proliferation, morphology changes and viability. The process is repeated with 0.025 wt % IRDye 800CW in media, cells with media as a positive control, and cells with 70% ethanol in media as a negative control.

[4] = test system: Human Umbilical Vein Endothelial (HUVEC) cells; assay: Endothelial cell adhesion to films; format: cell-based; conditions: HUVECs seeded on films, one hour, Calcein AM/propidium iodide
Method: To determine if endothelial cells bind to the catheters, 19 mm films are cut and affixed to the bottom of suspension 12-well culture plates with 50 μL of 10 mg/mL collagen Type I isolated from rat tails. Plates are incubated for 30 minutes to allow for collagen polymerization. Films are seeded with 100 cells/cm^2 and incubated for one hour. Wells are washed with PBS to remove non-adherent cells and stained with Calcein AM and propidium iodide to aid in visualization of cell binding. The number and cell health of adherent cells is analyzed with fluorescence microscopy and compared to positive (collagen plates) and negative (Teflon) controls.
In order to be a viable biomaterial, cell adhesion should be minimal in order to avoid excess damage when removing or inserting the PICC.

| Compound | thermal degradation temperature [1] [°C] | fluorescent signal stability in PBS [2] | Normalized Viability ([3]; 0.025 wt % in media, HUVECs, 72 hours, alamar blue, normalized to media control) | cell viability (statistics) ([3]; 72 hour incubation of HUVECs, IRDye 800CW at 0.025 wt %) | cell morphology or proliferation rates ([3]; Calcein AM and Propidium Iodide staining, HUVECs) | cell adherence (qualitative, cell shape) [4] |
| --- | --- | --- | --- | --- | --- | --- |
| CC1(C)C(=CC=C2CCCC(C=CC3=[N+](CCCCCC(=O)[O-])c4ccc(S(=O)(=O)[O-])cc4C3(C)C)=C2Oc2ccc(S(=O)(=O)[O-])cc2)N(CCCCS(=O)(=O)[O-])c2ccc(S(=O)(=O)[O-])cc21.[Na+].[Na+].[Na+].[Na+] [IRDye 800CW] | 308±10 | no observed decrease in the fluorescent signal | 91.27 ± 8.54 | no statistical difference | no apparent change |  |
| Collagen I: collagen Type I isolated from rat tails, positive control for cell adhesion |  |  |  |  |  | preferentially adhered |
